Reference: patent publication US10112899B2 (ViiV HEALTHCARE UK LIMITED, priority 2014, dated 2018)

Test system: HIV in the HTLV-1 transformed cell line MT-4
Assay: organism not typed
Format: cell-based
Details: MT4, 96 h, MT-4 cells; luciferase/cell titer glo readout after 96 hours; 10 point dose response

| SMILES | IC50 [nM] |
| --- | --- |
| Cc1ccc(-c2c(C)c3c(c(C)c2[C@H](OC(C)(C)C)C(=O)O)CN(C(=O)c2ccnn2C)C3)cc1 [Example 223, (S)-2-(tert-butoxy)-2-(4,7-dimethyl-2-(1-methyl-1H-pyrazole-5-carbonyl)-6-(p-tolyl)isoindolin-5-yl)acetic acid] | 13 |
| Cc1ccc(C)c(C(=O)N2Cc3c(C)c(-c4cc(F)c5c(c4C)CCCO5)c([C@H](OC(C)(C)C)C(=O)O)c(C)c3C2)c1 (atropisomer, axis not shown; (M)) [Example 157, (S)-2-(tert-butoxy)-2-(2-(2,5-dimethylbenzoyl)-6-((M)-8-fluoro-5-methylchroman-6-yl)-4,7-dimethylisoindolin-5-yl)acetic acid] | 3 |
| Cc1cc(Cl)ccc1-c1c(C)c2c(c(C)c1[C@H](OC(C)(C)C)C(=O)O)CN(C(=O)C1CCCCC1)C2 [Example 324, (2S)-2-(tert-butoxy)-2-(6-(4-chloro-2-methylphenyl)-2-(cyclohexanecarbonyl)-4,7-dimethylisoindolin-5-yl)acetic acid] | 13 |
| Cc1ccc(-c2c(C)c3c(c(C)c2C(OC(C)(C)C)C(=O)O)CN(Cc2ccc(F)cc2)C3)cc1 (stereo not shown) [Example 1, 2-(tert-Butoxy)-2-(2-(4-fluorobenzyl)-4,7-dimethyl-6-(p-tolyl)isoindolin-5-yl)acetic acid] | 35 |
| Cc1c(-c2c(C)c3c(c(C)c2[C@H](OC(C)(C)C)C(=O)O)CN(C(=O)c2cccc(F)c2)C3)cc(F)c2c1NCCO2 (atropisomer, axis not shown; (M)) [Example 301, (S)-2-(tert-butoxy)-2-(6-((M)-8-fluoro-5-methyl-3,4-dihydro-2H-benzo[b][1,4]oxazin-6-yl)-2-(3-fluorobenzoyl)-4,7-dimethylisoindolin-5-yl)acetic acid] | 5 |
| Cc1c(-c2c(C)c3c(c(C)c2[C@H](OC(C)(C)C)C(=O)O)CN(C(=O)CC(C)(C)C)C3)cc(F)c2c1CCCO2 (atropisomer, axis not shown; (M)) [Example 104, (S)-2-(tert-butoxy)-2-((M)-2-(3,3-dimethylbutanoyl)-6-(8-fluoro-5-methylchroman-6-yl)-4,7-dimethylisoindolin-5-yl)acetic acid] | 2 |
| Cc1ncccc1C(=O)N1Cc2c(C)c(-c3cc(F)c4c(c3C)CCCO4)c([C@H](OC(C)(C)C)C(=O)O)c(C)c2C1 (atropisomer, axis not shown; (M)) [Example 142, (S)-2-(tert-butoxy)-2-((M)-6-(8-fluoro-5-methylchroman-6-yl)-4,7-dimethyl-2-(2-methylnicotinoyl)isoindolin-5-yl)acetic acid] | 31 |
| Cc1cc(Cl)ccc1-c1c(C)c2c(c(C)c1[C@H](OC(C)(C)C)C(=O)O)CN(C(=O)CC(C)(C)C)C2 [Example 325, (2S)-2-(tert-butoxy)-2-(6-(4-chloro-2-methylphenyl)-2-(3,3-dimethylbutanoyl)-4,7-dimethylisoindolin-5-yl)acetic acid] | 13 |
| Cc1c(-c2c(C)c3c(c(C)c2[C@H](OC(C)(C)C)C(=O)O)CN(c2nnc(Cc4ccc(F)c(F)c4)o2)C3)cc(F)c2c1CCCO2 (atropisomer, axis not shown; (M)) [Example 203, (S)-2-(tert-butoxy)-2-((M)-2-(5-(3,4-difluorobenzyl)-1,3,4-oxadiazol-2-yl)-6-(8-fluoro-5-methylchroman-6-yl)-4,7-dimethylisoindolin-5-yl)acetic acid] | 63 |
| Cc1c(-c2c(C)c3c(c(C)c2[C@H](OC(C)(C)C)C(=O)O)CN(C(=O)c2cccc(Cl)c2)C3)cc(F)c2c1CCCO2 (atropisomer, axis not shown; (M)) [Example 147, (S)-2-(tert-butoxy)-2-((M)-2-(3-chlorobenzov)-6-(8-fluoro-5-methylchroman-6-yl)-4,7-dimethylisoindolin-5-yl)acetic acid] | 13 |
| Cc1ccc(-c2c(C)c3c(c(C)c2[C@H](OC(C)(C)C)C(=O)O)CN(C(=O)N2CC4CCC(C2)O4)C3)cc1 [Example 75, (2S)-2-(tert-butoxy)-2-[4,7-dimethyl-6-(4-methylphenyl)-2-{8-oxa-3-azabicyclo[3.2.1]octane-3-carbonyl}-2,3-dihydro-1H-isoindol-5-yl]acetic acid] | 34 |
| Cc1ccc(-c2c(C)c3c(c(C)c2[C@H](OC(C)(C)C)C(=O)O)CN(CC2CCCN2C(=O)OC(C)(C)C)C3)cc1 (stereo partly drawn) [Example 40, (2S)-2-(tert-butoxy)-2-[2-({1-[(tert-butoxy)carbonyl]pyrrolidin-2-yl}methyl)-4,7-dimethyl-6-(4-methylphenyl)-2,3-dihydro-1H-isoindol-5-yl]acetic acid] | 3430 |
| Cc1ccc(-c2c(C)c3c(c(C)c2[C@H](OC(C)(C)C)C(=O)O)CN(C(=O)N2C[C@H](C)O[C@@H](C)C2)C3)cc1 [Example 73, (2S)-2-(tert-butoxy)-2-{2-[(2S,6S)-2,6-dimethylmorpholine-4-carbonyl]-4,7-dimethyl-6-(4-methylphenyl)-2,3-dihydro-1H-isoindol-5-yl}acetic acid] | 26 |
| Cc1c(-c2c(C)c3c(c(C)c2[C@H](OC(C)(C)C)C(=O)O)CN(C(=O)N2CCCC(C)(C)CC2)C3)cc(F)c2c1CCCO2 (atropisomer, axis not shown; (M)) [Example 206, (S)-2-(tert-butoxy)-2-((M)-2-(4,4-dimethylazepane-1-carbonyl)-6-(8-fluoro-5-methylchroman-6-yl)-4,7-dimethylisoindolin-5-yl)acetic acid] | 5 |
| Cc1ccc(-c2c(C)c3c(c(C)c2[C@H](OC(C)(C)C)C(=O)O)CN(Cc2ccc(F)c(F)c2)C3)cc1 [Example 53, (2S)-2-(tert-butoxy)-2-{2-[(3,4-difluorophenyl)methyl]-4,7-dimethyl-6-(4-methylphenyl)-2,3-dihydro-1H-isoindol-5-yl}acetic acid] | 51 |
| Cc1ccc(-c2c(C)c3c(c(C)c2[C@H](OC(C)(C)C)C(=O)O)CN(C(=O)N2CCN(C)C(=O)C2)C3)cc1 [Example 90, (S)-2-(tert-butoxy)-2-(4,7-dimethyl-2-(4-methyl-3-oxopiperazine-1-carbonyl)-6-(p-tolyl)isoindolin-5-yl)acetic acid] | 267 |
| Cc1ccc(-c2c(C)c3c(c(C)c2[C@H](OC(C)(C)C)C(=O)O)CN(C(=O)c2cccc(C)c2)C3)cc1 [Example 225, (S)-2-(tert-butoxy)-2-(4,7-dimethyl-2-(3-methylbenzoyl)-6-(p-tolyl)isoindolin-5-yl)acetic acid] | 5 |
| Cc1ccc(-c2c(C)c3c(c(C)c2[C@H](OC(C)(C)C)C(=O)O)CN(Cc2cccc(-c4ccccc4)c2)C3)cc1 [Example 29, (S)-2-(2-([1,1′-biphenyl]-3-ylmethyl)-4,7-dimethyl-6-(p-tolyl)isoindolin-5-yl)-2-(tert-butoxy)acetic acid] | 184 |
| COc1ccc(C(=O)N2Cc3c(C)c(-c4cc(F)c5c(c4C)CCCO5)c([C@H](OC(C)(C)C)C(=O)O)c(C)c3C2)cc1 (atropisomer, axis not shown; (M)) [Example 196, (S)-2-(tert-butoxy)-2-((M)-6-(8-fluoro-5-methylchroman-6-yl)-2-(4-methoxybenzoyl)-4,7-dimethylisoindolin-5-yl)acetic acid] | 2 |
| Cc1ccc(-c2c(C)c3c(c(C)c2C(OC(C)(C)C)C(=O)O)CN(C(=O)OCc2ccccc2)C3)cc1 (stereo not shown) [Example 17, 2-(2-((Benzyloxy)carbonyl)-4,7-dimethyl-6-(p-tolyl)isoindolin-5-yl)-2-(tert-butoxy)acetic acid] | 1280 |
| Cc1ccc(-c2c(C)c3c(c(C)c2[C@H](OC(C)(C)C)C(=O)O)CN(C(=O)c2cccc4c2OCC4)C3)cc1 [Example 164, (S)-2-(tert-butoxy)-2-(2-(2,3-dihydrobenzofuran-7-carbonyl)-4,7-dimethyl-6-(p-tolyl)isoindolin-5-yl)acetic acid] | 4 |
| Cc1c(-c2c(C)c3c(c(C)c2[C@H](OC(C)(C)C)C(=O)O)CN(C(=O)c2cc(Cl)c(F)c(Cl)c2)C3)cc(F)c2c1CCCO2 (atropisomer, axis not shown; (M)) [Example 188, (S)-2-(tert-butoxy)-2-((M)-2-(3,5-dichloro-4-fluorobenzoyl)-6-(8-fluoro-5-methylchroman-6-yl)-4,7-dimethylisoindolin-5-yl)acetic acid] | 4 |
| Cc1c(-c2c(C)c3c(c(C)c2[C@H](OC(C)(C)C)C(=O)O)CN(c2nc4ccccc4o2)C3)cc(F)c2c1CCCO2 (atropisomer, axis not shown; (M)) [Example 202, (S)-2-((M)-2-(benzo[d]oxazol-2-yl)-6-(8-fluoro-5-methylchroman-6-yl)-4,7-dimethylisoindolin-5-yl)-2-(tert-butoxy)acetic acid] | 124 |
| Cc1ccc(-c2c(C)c3c(c(C)c2[C@H](OC(C)(C)C)C(=O)O)CN(C(=O)c2cnc(-c4ccccc4)o2)C3)cc1 [Example 274, (S)-2-(tert-butoxy)-2-(4,7-dimethyl-2-(2-phenyloxazole-5-carbonyl)-6-(p-tolyl)isoindolin-5-yl)acetic acid] | 297 |
| Cc1ccc(-c2c(C)c3c(c(C)c2[C@H](OC(C)(C)C)C(=O)O)CN(C(=O)OC(C)(C)C)C3)cc1 [Example 126, (S)-2-(tert-butoxy)-2-(2-(tert-butoxycarbonyl)-4,7-dimethyl-6-(p-tolyl)isoindolin-5-yl)acetic acid] | 13 |
| Cc1ccc(-c2c(C)c3c(c(C)c2[C@H](OC(C)(C)C)C(=O)O)CN(C(=O)c2cccc(C(C)(C)C)c2)C3)cc1 [Example 230, (S)-2-(tert-butoxy)-2-(2-(3-(tert-butyl)benzoyl)-4,7-dimethyl-6-(p-tolyl)isoindolin-5-yl)acetic acid] | 111 |
| Cc1ccc(-c2c(C)c3c(c(C)c2[C@H](OC(C)(C)C)C(=O)O)CN(C(=O)c2cc(Cl)c(F)c(Cl)c2)C3)cc1 [Example 281, (S)-2-(tert-butoxy)-2-(2-(3,5-dichloro-4-fluorobenzoyl)-4,7-dimethyl-6-(p-tolyl)isoindolin-5-yl)acetic acid] | 17 |
| Cc1ccc(-c2c(C)c3c(c(C)c2[C@H](OC(C)(C)C)C(=O)O)CN(Cc2cccc(C(=O)N4CCCCC4)c2)C3)cc1 [Example 44, (2S)-2-(tert-butoxy)-2-[4,7-dimethyl-6-(4-methylphenyl)-2-{[3-(piperidine-1-carbonyl)phenyl]methyl}-2,3-dihydro-1H-isoindol-5-yl]acetic acid] | 3350 |
